The structures appear in SMILES notation. pIC50: −log10 of the molar value.

In one test the target is BRG-1 (Homo sapiens, UniProt P51532). Nature of the test: ATPase catalytic activity assay (ADP-Glo), BRG-1.
BRG-1, sequence (P51532 whole entry): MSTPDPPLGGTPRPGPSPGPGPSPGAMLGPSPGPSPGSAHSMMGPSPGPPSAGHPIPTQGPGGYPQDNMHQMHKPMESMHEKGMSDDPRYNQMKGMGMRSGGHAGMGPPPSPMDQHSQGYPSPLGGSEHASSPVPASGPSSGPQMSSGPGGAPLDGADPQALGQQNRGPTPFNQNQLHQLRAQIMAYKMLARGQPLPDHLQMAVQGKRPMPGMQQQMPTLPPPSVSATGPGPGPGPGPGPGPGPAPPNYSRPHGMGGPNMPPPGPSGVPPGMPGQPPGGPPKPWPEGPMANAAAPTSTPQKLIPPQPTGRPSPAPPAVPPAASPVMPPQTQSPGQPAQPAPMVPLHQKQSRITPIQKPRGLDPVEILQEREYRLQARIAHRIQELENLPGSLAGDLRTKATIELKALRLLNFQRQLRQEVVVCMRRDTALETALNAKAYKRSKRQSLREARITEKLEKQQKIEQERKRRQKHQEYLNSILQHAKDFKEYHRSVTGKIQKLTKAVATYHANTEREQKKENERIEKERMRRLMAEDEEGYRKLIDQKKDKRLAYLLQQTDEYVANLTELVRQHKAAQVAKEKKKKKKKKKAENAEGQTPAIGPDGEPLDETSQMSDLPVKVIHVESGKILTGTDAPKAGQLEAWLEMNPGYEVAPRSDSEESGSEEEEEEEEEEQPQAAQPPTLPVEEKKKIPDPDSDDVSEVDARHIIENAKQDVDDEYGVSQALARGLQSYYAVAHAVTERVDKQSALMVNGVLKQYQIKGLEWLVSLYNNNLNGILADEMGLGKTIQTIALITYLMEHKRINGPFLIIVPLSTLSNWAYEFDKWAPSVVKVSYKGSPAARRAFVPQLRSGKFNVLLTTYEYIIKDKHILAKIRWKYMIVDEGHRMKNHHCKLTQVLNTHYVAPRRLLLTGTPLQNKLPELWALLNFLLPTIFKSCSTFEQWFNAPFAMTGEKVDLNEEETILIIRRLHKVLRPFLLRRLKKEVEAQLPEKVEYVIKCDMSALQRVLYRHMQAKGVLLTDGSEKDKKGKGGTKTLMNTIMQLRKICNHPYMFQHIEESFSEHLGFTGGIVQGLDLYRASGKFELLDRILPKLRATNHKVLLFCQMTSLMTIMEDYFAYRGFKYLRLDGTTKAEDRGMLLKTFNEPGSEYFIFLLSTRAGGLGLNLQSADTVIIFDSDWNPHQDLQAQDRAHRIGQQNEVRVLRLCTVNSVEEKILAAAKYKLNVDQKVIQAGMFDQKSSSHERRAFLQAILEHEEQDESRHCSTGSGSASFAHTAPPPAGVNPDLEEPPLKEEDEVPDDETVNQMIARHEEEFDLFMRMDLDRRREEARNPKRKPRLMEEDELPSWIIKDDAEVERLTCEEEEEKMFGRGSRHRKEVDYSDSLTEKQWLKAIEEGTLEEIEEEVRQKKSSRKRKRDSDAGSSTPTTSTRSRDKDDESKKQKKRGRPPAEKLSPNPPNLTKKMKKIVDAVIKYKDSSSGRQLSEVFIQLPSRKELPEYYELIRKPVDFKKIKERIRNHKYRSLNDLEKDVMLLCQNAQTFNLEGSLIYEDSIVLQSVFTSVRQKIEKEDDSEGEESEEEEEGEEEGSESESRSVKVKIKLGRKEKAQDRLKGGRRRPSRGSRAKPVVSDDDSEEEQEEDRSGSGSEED
Conditions: not given
On the technique in general: ADP-Glo first removes unused ATP, then detects ADP through luciferase.
Molecule `COc1nn(C2CCOC2)cc1-c1ccc2cnc(CNC(=O)c3ccc4c(c3)[C@](C)(C#N)COC4)cc2n1` (stereo partly drawn) [Compound 197] gave a pIC50 below 6.00.
Still for that read-out and setting: the result for `C[C@@]1(C#N)COCc2ccc(C(=O)NCc3cc4nc(-c5cccc(C6(O)COC6)c5)ccc4cn3)cc21` [Compound 479] reads 6.00 to 6.30.
Same read-out and setting: next, `Cn1cc(-c2ccc3cnc(CNC(=O)c4ccc5c(c4)[C@](C)(C#N)COC5)cc3n2)cn1` [Compound 104]: below 6.00; `CN(C)c1cccn(-c2ccc3cnc(CNC(=O)c4ccc5c(c4)[C@](C)(C#N)COC5)cc3n2)c1=O` [Compound 281]: below 6.00; `[2H]C1([2H])OCc2ncc(C(=O)NCc3cc4nc(-c5cncc(C6CC6)n5)ccc4cn3)cc2[C@]1(C)F` [Compound 222]: 6.00 to 6.30.
As to `C[C@@]1(C#N)COCc2ccc(C(=O)NCc3cc4cc(-c5ccnc(N6CCC6)c5F)ccc4cn3)cc21` [Compound 272], the pIC50 is 6.30 to 7.00.
Same read-out and setting: next, `C[C@@]1(C#N)COCc2ccc(C(=O)NCc3cc4cc(-c5ccnc(C6CC6)c5F)cnc4cn3)cc21` [Compound 280]: 6.30 to 7.00; `C[C@@]1(C#N)COCc2ccc(C(=O)NCc3cc4nc(-c5cnn(-c6ccncc6)c5)ccc4cn3)cc21` [Compound 477]: below 6.00.
As to `C[C@@]1(C#N)COCc2ccc(C(=O)NCc3cc4nc(-c5cccc(N6CCC6=O)n5)ccc4cn3)cc21` [Compound 392], the pIC50 is 6.30 to 7.00.
On to `Cc1nn(C)cc1-c1ccc2cnc(CNC(=O)c3ccc4c(c3)[C@](C)(C#N)COC4)cc2n1` [Compound 509], for which the pIC50 is 6.00 to 6.30.
Still for that read-out and setting: next, `C[C@@]1(C#N)COCc2ccc(C(=O)NCc3cc4nc(-c5ccccc5)ccc4cn3)cc21` [Compound 97]: below 6.00; `CN1CCN(c2cccc(-c3ccc4cnc(CNC(=O)c5ccc6c(c5)[C@](C)(C#N)COC6)cc4n3)c2)CC1` [Compound 474]: below 6.00; `C[C@@]1(C#N)COCc2ccc(C(=O)NCc3cc(/C=C/c4ccccc4)ccn3)cc21` [Compound 4]: below 6.00.
Still for that read-out and setting: the result for `Cn1nccc(-c2ccc3cnc(CNC(=O)c4ccc5c(c4)[C@](C)(F)COC5)cc3n2)c1=O` [Compound 293] reads below 6.00; that for `C[C@@]1(C#N)COCc2ccc(C(=O)NCc3cc4nc(-c5cnccn5)ccc4cn3)cc21` [Compound 520], 6.00 to 6.30.
Still for that read-out and setting: next, `COC1CN(c2nccc(-c3ccc4cnc(CNC(=O)c5ccc6c(c5)[C@](C)(C#N)COC6)cc4n3)n2)C1` [Compound 430]: 6.30 to 7.00.
The molecule `C[C@@]1(C#N)COCc2ccc(C(=O)NCc3cc4cc(-c5cccc(N6CCC6)n5)ccc4nn3)cc21` [Compound 351] had a pIC50 of 6.30 to 7.00.

Staying with this test, now noted: 1 h, read-out: BRG1 Max % Inhibition, ADP-Glo, 30 nM BRG-1, 400 μM ATP.
Consider `COc1nn(C2CCOC2)cc1-c1ccc2cnc(CNC(=O)c3ccc4c(c3)[C@](C)(C#N)COC4)cc2n1` (stereo partly drawn) [Compound 197], for which the Emax was 59%.
As to `C[C@@]1(C#N)COCc2ccc(C(=O)NCc3cc4nc(-c5cccc(C6(O)COC6)c5)ccc4cn3)cc21` [Compound 479], the Emax amounted to 72%.
Same read-out and setting: the result for `Cn1cc(-c2ccc3cnc(CNC(=O)c4ccc5c(c4)[C@](C)(C#N)COC5)cc3n2)cn1` [Compound 104] reads 33%.
Consider `CN(C)c1cccn(-c2ccc3cnc(CNC(=O)c4ccc5c(c4)[C@](C)(C#N)COC5)cc3n2)c1=O` [Compound 281], for which the Emax worked out at 48%.
On the same count and under the same terms, next, `[2H]C1([2H])OCc2ncc(C(=O)NCc3cc4nc(-c5cncc(C6CC6)n5)ccc4cn3)cc2[C@]1(C)F` [Compound 222]: 83%.
For `C[C@@]1(C#N)COCc2ccc(C(=O)NCc3cc4cc(-c5ccnc(N6CCC6)c5F)ccc4cn3)cc21` [Compound 272], the Emax is 95%.
Same read-out and setting: next, `C[C@@]1(C#N)COCc2ccc(C(=O)NCc3cc4cc(-c5ccnc(C6CC6)c5F)cnc4cn3)cc21` [Compound 280]: 82%.
The same measure, in the same setting: the result for `C[C@@]1(C#N)COCc2ccc(C(=O)NCc3cc4nc(-c5cnn(-c6ccncc6)c5)ccc4cn3)cc21` [Compound 477] reads 49%; that for `C[C@@]1(C#N)COCc2ccc(C(=O)NCc3cc4nc(-c5cccc(N6CCC6=O)n5)ccc4cn3)cc21` [Compound 392], 95%.
As for `Cc1nn(C)cc1-c1ccc2cnc(CNC(=O)c3ccc4c(c3)[C@](C)(C#N)COC4)cc2n1` [Compound 509], the Emax was found to be 54%.
In the case of `CN1CCN(c2cccc(-c3ccc4cnc(CNC(=O)c5ccc6c(c5)[C@](C)(C#N)COC6)cc4n3)c2)CC1` [Compound 474], the Emax came to 53%.
Still for that read-out and setting: next, `C[C@@]1(C#N)COCc2ccc(C(=O)NCc3cc(/C=C/c4ccccc4)ccn3)cc21` [Compound 4]: 74%.
As for `Cn1nccc(-c2ccc3cnc(CNC(=O)c4ccc5c(c4)[C@](C)(F)COC5)cc3n2)c1=O` [Compound 293], the Emax was found to be 33%.
For the molecule `C[C@@]1(C#N)COCc2ccc(C(=O)NCc3cc4nc(-c5cnccn5)ccc4cn3)cc21` [Compound 520], the Emax was 53%.
`COC1CN(c2nccc(-c3ccc4cnc(CNC(=O)c5ccc6c(c5)[C@](C)(C#N)COC6)cc4n3)n2)C1` [Compound 430]: the Emax turned out to be 92%.
Still for that read-out and setting: next, `C[C@@]1(C#N)COCc2ccc(C(=O)NCc3cc4cc(-c5cccc(N6CCC6)n5)ccc4nn3)cc21` [Compound 351]: 95%.

The same test, now with this note: ADP-Glo, 30 nM BRG-1, 400 μM ATP.
With `C[C@@]1(C#N)COCc2ccc(C(=O)NCc3cc4nc(-c5ccccc5)ccc4cn3)cc21` [Compound 85], the “BRG1 Max % Inhibition” value turned out to be 77%.
In the case of `C[C@@]1(C#N)COCc2ccc(C(=O)NCc3cc4nc(-c5ccccc5)ccc4cn3)cc21` [Compound 97], the “BRG1 Max % Inhibition” value worked out at 47%.

Staying with this test, now noted: read-out: BRG1 ATPase: IC50; ADP-Glo, 30 nM BRG-1, 400 μM ATP.
For `C[C@@]1(C#N)COCc2ccc(C(=O)NCc3cc4nc(-c5ccccc5)ccc4cn3)cc21` [Compound 85], the pIC50 was below 6.00.

The target of a further test is BRM (Homo sapiens, UniProt P51531). Nature of the test: ATPase catalytic activity assay (ADP-Glo), BRM. The note with it: 30 nM BRM, 400 μM ATP.
BRM, sequence (P51531 whole entry): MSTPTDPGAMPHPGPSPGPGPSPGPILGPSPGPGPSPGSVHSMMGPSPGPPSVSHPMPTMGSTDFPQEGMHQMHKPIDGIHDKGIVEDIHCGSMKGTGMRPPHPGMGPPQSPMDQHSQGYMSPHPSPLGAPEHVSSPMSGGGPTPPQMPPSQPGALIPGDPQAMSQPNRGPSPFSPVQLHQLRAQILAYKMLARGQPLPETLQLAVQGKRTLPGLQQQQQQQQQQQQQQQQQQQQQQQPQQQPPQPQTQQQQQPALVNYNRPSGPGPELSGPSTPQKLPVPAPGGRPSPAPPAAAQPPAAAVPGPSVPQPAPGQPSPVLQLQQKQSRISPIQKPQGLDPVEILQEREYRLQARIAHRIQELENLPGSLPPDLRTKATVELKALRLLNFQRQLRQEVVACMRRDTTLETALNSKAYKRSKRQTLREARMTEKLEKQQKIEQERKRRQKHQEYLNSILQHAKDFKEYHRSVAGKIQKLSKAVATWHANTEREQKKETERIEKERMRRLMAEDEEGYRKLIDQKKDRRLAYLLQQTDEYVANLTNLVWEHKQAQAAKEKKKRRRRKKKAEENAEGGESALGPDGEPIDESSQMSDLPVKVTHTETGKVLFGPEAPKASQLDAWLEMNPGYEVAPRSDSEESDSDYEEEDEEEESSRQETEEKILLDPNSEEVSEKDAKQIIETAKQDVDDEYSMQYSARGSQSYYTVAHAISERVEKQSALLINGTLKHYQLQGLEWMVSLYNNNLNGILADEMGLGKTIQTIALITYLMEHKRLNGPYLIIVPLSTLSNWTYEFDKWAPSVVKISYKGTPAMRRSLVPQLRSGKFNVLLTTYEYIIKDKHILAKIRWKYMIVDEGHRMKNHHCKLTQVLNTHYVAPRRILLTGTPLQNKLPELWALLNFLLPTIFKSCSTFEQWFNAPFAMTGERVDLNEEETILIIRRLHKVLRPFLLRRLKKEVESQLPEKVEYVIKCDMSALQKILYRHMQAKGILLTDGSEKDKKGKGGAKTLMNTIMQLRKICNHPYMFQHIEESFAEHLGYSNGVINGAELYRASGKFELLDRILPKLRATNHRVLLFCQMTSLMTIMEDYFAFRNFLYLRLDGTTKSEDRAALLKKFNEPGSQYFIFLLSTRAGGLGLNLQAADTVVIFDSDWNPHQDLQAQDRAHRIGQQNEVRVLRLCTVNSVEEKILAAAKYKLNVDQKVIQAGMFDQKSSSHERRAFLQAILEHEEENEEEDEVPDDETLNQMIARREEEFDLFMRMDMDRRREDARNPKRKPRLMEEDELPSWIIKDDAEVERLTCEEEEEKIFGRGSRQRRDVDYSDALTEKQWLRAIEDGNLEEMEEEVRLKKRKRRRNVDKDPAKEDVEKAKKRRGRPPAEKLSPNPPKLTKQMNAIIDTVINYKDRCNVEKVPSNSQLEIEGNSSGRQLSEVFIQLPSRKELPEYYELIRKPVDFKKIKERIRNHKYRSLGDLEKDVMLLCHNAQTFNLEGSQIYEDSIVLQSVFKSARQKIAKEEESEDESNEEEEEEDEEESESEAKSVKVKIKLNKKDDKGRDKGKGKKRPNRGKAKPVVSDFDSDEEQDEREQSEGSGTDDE
As for `C[C@@]1(C#N)COCc2ccc(C(=O)NCc3cc4nc(-c5ccccc5)ccc4cn3)cc21` [Compound 85], the “BRM Max % Inhibition” value was found to be 98%.
In the case of `COc1nn(C2CCOC2)cc1-c1ccc2cnc(CNC(=O)c3ccc4c(c3)[C@](C)(C#N)COC4)cc2n1` (stereo partly drawn) [Compound 197], the “BRM Max % Inhibition” value is on record as 89%.
On the same count and under the same terms, next, `C[C@@]1(C#N)COCc2ccc(C(=O)NCc3cc4nc(-c5cccc(C6(O)COC6)c5)ccc4cn3)cc21` [Compound 479]: 96%; `Cn1cc(-c2ccc3cnc(CNC(=O)c4ccc5c(c4)[C@](C)(C#N)COC5)cc3n2)cn1` [Compound 104]: 84%; `CN(C)c1cccn(-c2ccc3cnc(CNC(=O)c4ccc5c(c4)[C@](C)(C#N)COC5)cc3n2)c1=O` [Compound 281]: 92%.
The same measure, in the same setting: the result for `[2H]C1([2H])OCc2ncc(C(=O)NCc3cc4nc(-c5cncc(C6CC6)n5)ccc4cn3)cc2[C@]1(C)F` [Compound 222] reads 98%; that for `C[C@@]1(C#N)COCc2ccc(C(=O)NCc3cc4cc(-c5ccnc(N6CCC6)c5F)ccc4cn3)cc21` [Compound 272], 104%.
On to `C[C@@]1(C#N)COCc2ccc(C(=O)NCc3cc4cc(-c5ccnc(C6CC6)c5F)cnc4cn3)cc21` [Compound 280], for which the “BRM Max % Inhibition” value is 96%.
On the same count and under the same terms, next, `C[C@@]1(C#N)COCc2ccc(C(=O)NCc3cc4nc(-c5cnn(-c6ccncc6)c5)ccc4cn3)cc21` [Compound 477]: 88%; `C[C@@]1(C#N)COCc2ccc(C(=O)NCc3cc4nc(-c5cccc(N6CCC6=O)n5)ccc4cn3)cc21` [Compound 392]: 100%.
On the same count and under the same terms, the result for `Cc1nn(C)cc1-c1ccc2cnc(CNC(=O)c3ccc4c(c3)[C@](C)(C#N)COC4)cc2n1` [Compound 509] reads 93%; that for `C[C@@]1(C#N)COCc2ccc(C(=O)NCc3cc4nc(-c5ccccc5)ccc4cn3)cc21` [Compound 97], 93%.
Take `CN1CCN(c2cccc(-c3ccc4cnc(CNC(=O)c5ccc6c(c5)[C@](C)(C#N)COC6)cc4n3)c2)CC1` [Compound 474]: the “BRM Max % Inhibition” value amounted to 93%.
On the same count and under the same terms, next, `C[C@@]1(C#N)COCc2ccc(C(=O)NCc3cc(/C=C/c4ccccc4)ccn3)cc21` [Compound 4]: 97%.
As to `Cn1nccc(-c2ccc3cnc(CNC(=O)c4ccc5c(c4)[C@](C)(F)COC5)cc3n2)c1=O` [Compound 293], the “BRM Max % Inhibition” value was determined as 88%.
The same measure, in the same setting: the result for `C[C@@]1(C#N)COCc2ccc(C(=O)NCc3cc4nc(-c5cnccn5)ccc4cn3)cc21` [Compound 520] reads 88%.
Still for that read-out and setting: the result for `COC1CN(c2nccc(-c3ccc4cnc(CNC(=O)c5ccc6c(c5)[C@](C)(C#N)COC6)cc4n3)n2)C1` [Compound 430] reads 100%; that for `C[C@@]1(C#N)COCc2ccc(C(=O)NCc3cc4cc(-c5cccc(N6CCC6)n5)ccc4nn3)cc21` [Compound 351], 101%.

Staying with this test, now noted: BRM ATPase: IC50 (uM), 30 nM BRM, 400 μM ATP.
As for `C[C@@]1(C#N)COCc2ccc(C(=O)NCc3cc4nc(-c5ccccc5)ccc4cn3)cc21` [Compound 85], the IC50 was below 0.1 µM.
On the same count and under the same terms, the result for `COc1nn(C2CCOC2)cc1-c1ccc2cnc(CNC(=O)c3ccc4c(c3)[C@](C)(C#N)COC4)cc2n1` (stereo partly drawn) [Compound 197] reads 0.1 to 0.5 µM; that for `C[C@@]1(C#N)COCc2ccc(C(=O)NCc3cc4nc(-c5cccc(C6(O)COC6)c5)ccc4cn3)cc21` [Compound 479], 0.1 to 0.5 µM; that for `Cn1cc(-c2ccc3cnc(CNC(=O)c4ccc5c(c4)[C@](C)(C#N)COC5)cc3n2)cn1` [Compound 104], 0.5 to 1 µM.
Regarding `CN(C)c1cccn(-c2ccc3cnc(CNC(=O)c4ccc5c(c4)[C@](C)(C#N)COC5)cc3n2)c1=O` [Compound 281], the IC50 was 0.1 to 0.5 µM.
On the same count and under the same terms, the result for `[2H]C1([2H])OCc2ncc(C(=O)NCc3cc4nc(-c5cncc(C6CC6)n5)ccc4cn3)cc2[C@]1(C)F` [Compound 222] reads below 0.1 µM; that for `C[C@@]1(C#N)COCc2ccc(C(=O)NCc3cc4cc(-c5ccnc(N6CCC6)c5F)ccc4cn3)cc21` [Compound 272], below 0.1 µM.
Same read-out and setting: next, `C[C@@]1(C#N)COCc2ccc(C(=O)NCc3cc4cc(-c5ccnc(C6CC6)c5F)cnc4cn3)cc21` [Compound 280]: 0.1 to 0.5 µM; `C[C@@]1(C#N)COCc2ccc(C(=O)NCc3cc4nc(-c5cnn(-c6ccncc6)c5)ccc4cn3)cc21` [Compound 477]: 0.1 to 0.5 µM; `C[C@@]1(C#N)COCc2ccc(C(=O)NCc3cc4nc(-c5cccc(N6CCC6=O)n5)ccc4cn3)cc21` [Compound 392]: below 0.1 µM.
Still for that read-out and setting: the result for `Cc1nn(C)cc1-c1ccc2cnc(CNC(=O)c3ccc4c(c3)[C@](C)(C#N)COC4)cc2n1` [Compound 509] reads 0.1 to 0.5 µM; that for `C[C@@]1(C#N)COCc2ccc(C(=O)NCc3cc4nc(-c5ccccc5)ccc4cn3)cc21` [Compound 97], 0.1 to 0.5 µM; that for `CN1CCN(c2cccc(-c3ccc4cnc(CNC(=O)c5ccc6c(c5)[C@](C)(C#N)COC6)cc4n3)c2)CC1` [Compound 474], 0.1 to 0.5 µM.
`C[C@@]1(C#N)COCc2ccc(C(=O)NCc3cc(/C=C/c4ccccc4)ccn3)cc21` [Compound 4] had an IC50 of 0.1 to 0.5 µM.
In turn, `Cn1nccc(-c2ccc3cnc(CNC(=O)c4ccc5c(c4)[C@](C)(F)COC5)cc3n2)c1=O` [Compound 293] showed an IC50 of 0.1 to 0.5 µM.
Still for that read-out and setting: the result for `C[C@@]1(C#N)COCc2ccc(C(=O)NCc3cc4nc(-c5cnccn5)ccc4cn3)cc21` [Compound 520] reads 0.1 to 0.5 µM; that for `COC1CN(c2nccc(-c3ccc4cnc(CNC(=O)c5ccc6c(c5)[C@](C)(C#N)COC6)cc4n3)n2)C1` [Compound 430], below 0.1 µM; that for `C[C@@]1(C#N)COCc2ccc(C(=O)NCc3cc4cc(-c5cccc(N6CCC6)n5)ccc4nn3)cc21` [Compound 351], below 0.1 µM.

What is called pIC50 is the IC50 on a negative log10 scale, so that one unit is a factor of ten. A word on the IC50: it is the concentration that gives 50% inhibition.

The values above are taken from patent US12441726B2, “Compounds and uses thereof” (Foghorn Therapeutics Inc., priority 2020, dated 2025).
